The text below walks through data of US7994140B2, “Classes of compounds that interact with GPCRs” (Alchemia Limited, priority 2002, dated 2011).

Molecules are shown by their SMILES.

One experiment concerns the target T1, SST5 (Homo sapiens, UniProt P35346).
T1 construct: purchased Perkin Elmer BioSignal; host or cells: HEK 293
Kind of experiment: GPCR radioligand binding (RLB) assay, somatostatin SST5, [125I]SST-14. The note with it: for SST5 inhibition at 10 micromolar: recombinant human receptor membranes (HEK 293). The procedure: Recombinant human receptors expressed in HEK 293 cells were used for all experiments. Receptor membrane preparations were purchased from Perkin Elmer BioSignal. The labelled ligand used in somatostatin GPCR RLB assays was [^125I]SST-14 and in melanocortin assays was [^125I]NDP-αMSH. All assays were done in a 96-well plate format using either glass fiber filter mats or filter plates. All reagents purchased were of the highest quality.
Specific assay buffer, incubation and washing conditions were optimized for each receptor however they all followed the same general format. The procedures for both filter mat and filter plate formats are based on the receptor manufacturers recommendations or those described extensively in the literature. The procedures are briefly outlined below.
In assays where filter mats are used we incubate receptor membranes, assay buffer and [^125I] labelled ligand in 96 well microplates. Add compounds to incubation mixture and continue incubation for optimized period. Presoak Filter mat GF/B in 0.5% PEI for ˜2 hr at 4° C. On completion of assay mixture incubation add additional 100 μL/well of assay buffer immediately prior to filtration. Filter the assay mixture onto the GF/B filter mat using a cell harvester. Dry the filter mats prior to sealing them into a scintillation counting bag with scintillant. Radioactivity in each well is detected by liquid scintillation counting.
In assays where filter plates are used Multiscreen glass fiber filter plates (Millipore, Cat No MAFCNOB10) are precoated with 0.5% PEI for ˜2 hr at 4° C. All wells are then washed with 200 µl/well assay buffer and filtered using the Multiscreen Separation System. Subsequently receptor membranes, assay buffer and labelled ligands are added to the wells and equilibrated. Compounds for testing are then added to the mixture and incubation is continued for an optimized time. Plates are then put into the Multiscreen Separation System and the assay mixture is filtered through the plate under vacuum. Each well is then washed several times with assay buffer. Plates are then dried prior to putting sealing tape onto the bottom of the plate. Scintillant is added to each well and radioactivity measured by liquid scintillation counting.
Raw data was analysed according to standard methods using either GraphPad Prism software or IDDBS ActivityBase software.

A further experiment addresses T2, MC4 (Homo sapiens, UniProt P32245).
T2 construct: purchased Perkin Elmer BioSignal; host or cells: HEK 293
Kind of experiment: GPCR radioligand binding (RLB) assay, melanocortin MC4, [125I]NDP-αMSH. The note with it: 10 micromolar compound; recombinant human receptor membranes (HEK 293). Summed up: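 Membranes from HEK 293 cells expressing the recombinant human receptor were equilibrated with [125I]SST-14 (SST5) or [125I]NDP-αMSH (MC4), then compound added for an optimized incubation. Bound ligand separated by filtration on PEI-coated glass fiber and counted by liquid scintillation.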

Setting [1] is: 10 micromolar, Example Library 4.

T1 sequence (P35346 whole entry): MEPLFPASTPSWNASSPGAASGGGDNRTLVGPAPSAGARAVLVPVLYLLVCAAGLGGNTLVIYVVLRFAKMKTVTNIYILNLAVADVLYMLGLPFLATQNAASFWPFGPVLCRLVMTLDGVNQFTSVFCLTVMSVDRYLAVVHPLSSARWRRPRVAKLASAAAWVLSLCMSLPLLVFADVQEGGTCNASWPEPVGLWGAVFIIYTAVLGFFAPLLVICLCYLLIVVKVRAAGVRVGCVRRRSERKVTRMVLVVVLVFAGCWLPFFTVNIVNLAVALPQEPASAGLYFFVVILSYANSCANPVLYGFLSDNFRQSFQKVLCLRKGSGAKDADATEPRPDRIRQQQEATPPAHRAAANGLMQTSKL
T2 sequence (P32245 whole entry): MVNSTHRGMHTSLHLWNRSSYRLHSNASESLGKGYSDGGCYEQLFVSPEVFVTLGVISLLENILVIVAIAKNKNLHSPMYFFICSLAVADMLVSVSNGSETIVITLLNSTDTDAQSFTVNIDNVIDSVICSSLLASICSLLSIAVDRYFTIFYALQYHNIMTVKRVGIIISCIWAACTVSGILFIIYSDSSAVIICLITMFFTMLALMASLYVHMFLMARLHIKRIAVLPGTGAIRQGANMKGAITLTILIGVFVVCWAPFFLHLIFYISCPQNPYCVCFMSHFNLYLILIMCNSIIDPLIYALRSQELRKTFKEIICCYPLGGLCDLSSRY

Take `COC[C@H]1OC(OCc2ccc(-c3ccccc3)cc2)[C@H](NC(=O)CNC(=N)N)[C@@H](OCc2ccc(-c3ccccc3)cc2)[C@@H]1O` (some centres unmarked) [Compound 1]: on SST5 (10 micromolar compound), the “SST5 inhibition at 10 micromolar” value is given as “+ (Indicates inhibition greater than . . . 50%)”. At MC4, the “MC4 inhibition at 10 micromolar” value is on record as “+ (Indicates inhibition greater than . . . 50%)”. As for `COC[C@H]1OC(OCc2ccccc2)[C@H](NC(=O)CCNC(=N)N)[C@@H](OCc2ccc(-c3ccccc3)cc2)[C@@H]1O` (some centres unmarked) [Compound 6], on SST5 (10 micromolar compound), the “SST5 inhibition at 10 micromolar” value is listed as “+ (Indicates inhibition greater than . . . 50%)”. Further, the “MC4 inhibition at 10 micromolar” value at MC4 is listed as “+ (Indicates inhibition greater than . . . 50%)”. For `COC[C@H]1OC(OCc2ccc(Cl)cc2)[C@H](NC(=O)CCNC(=N)N)[C@@H](OCc2ccc(-c3ccccc3)cc2)[C@@H]1O` (some centres unmarked) [Compound 13], at SST5 (10 micromolar compound), the “SST5 inhibition at 10 micromolar” value is recorded as “+ (Indicates inhibition greater than . . . 50%)”. In addition, the “MC4 inhibition at 10 micromolar” value at MC4 is reported as “+ (Indicates inhibition greater than . . . 50%)”. Regarding `COC[C@H]1OC(OCc2ccc(Cl)cc2)[C@H](NC(=O)CCNC(=N)N)[C@@H](OCc2ccc3ccccc3c2)[C@@H]1O` (some centres unmarked) [Compound 14], the “SST5 inhibition at 10 micromolar” value on SST5 (10 micromolar compound) is “+ (Indicates inhibition greater than . . . 50%)”. Moreover, the “MC4 inhibition at 10 micromolar” value on MC4 is recorded as “+ (Indicates inhibition greater than . . . 50%)”. In the case of `COC[C@H]1OC(OCc2ccc(Cl)cc2)[C@H](NC(=O)CCCNC(=N)N)[C@@H](OCc2ccc3ccccc3c2)[C@@H]1O` (some centres unmarked) [Compound 15], the “SST5 inhibition at 10 micromolar” value on SST5 (10 micromolar compound) was “+ (Indicates inhibition greater than . . . 50%)”. Further, the “MC4 inhibition at 10 micromolar” value on MC4 is given as “+ (Indicates inhibition greater than . . . 50%)”. For `COC[C@H]1OC(OCc2ccc(-c3ccccc3)cc2)[C@H](NC(=O)CCCN)[C@@H](OCc2ccc(-c3ccccc3)cc2)[C@@H]1O` (some centres unmarked) [Compound 28], at SST5 (10 micromolar compound), the “SST5 inhibition at 10 micromolar” value is recorded as “+ (Indicates inhibition greater than . . . 50%)”. Further, the “MC4 inhibition at 10 micromolar” value at MC4 was “+ (Indicates inhibition greater than . . . 50%)”. For the compound `COC[C@H]1OC(OCc2ccc(-c3ccccc3)cc2)[C@H](NC(=O)CCCNC(=N)N)[C@@H](OCc2ccc(-c3ccccc3)cc2)[C@@H]1O` (some centres unmarked) [Compound 29], the “SST5 inhibition at 10 micromolar” value at SST5 (10 micromolar compound) was “+ (Indicates inhibition greater than . . . 50%)”. Further, the “MC4 inhibition at 10 micromolar” value on MC4 is listed as “+ (Indicates inhibition greater than . . . 50%)”. Take `COC[C@H]1OC(OCc2ccc(-c3ccccc3)cc2)[C@H](NC(=O)CCCNC(=N)N)[C@@H](OCc2ccc3ccccc3c2)[C@@H]1O` (some centres unmarked) [Compound 30]: the “SST5 inhibition at 10 micromolar” value at SST5 (10 micromolar compound) was “+ (Indicates inhibition greater than . . . 50%)”. Also, the “MC4 inhibition at 10 micromolar” value at MC4 is on record as “+ (Indicates inhibition greater than . . . 50%)”. For `COC[C@H]1OC(OCc2ccc(-c3ccccc3)cc2)[C@H](NC(=O)CCNC(=N)N)[C@@H](OCc2ccc(Cl)cc2)[C@@H]1O` (some centres unmarked) [Compound 32], the “SST5 inhibition at 10 micromolar” value on SST5 (10 micromolar compound) is reported as “+ (Indicates inhibition greater than . . . 50%)”. Moreover, at MC4, the “MC4 inhibition at 10 micromolar” value is “+ (Indicates inhibition greater than . . . 50%)”. On to `COC[C@H]1OC(OCc2ccc(-c3ccccc3)cc2)[C@H](NC(=O)CCCN)[C@@H](OCc2ccc(Cl)cc2)[C@@H]1O` (some centres unmarked) [Compound 33], for which the “SST5 inhibition at 10 micromolar” value at SST5 (10 micromolar compound) is “+ (Indicates inhibition greater than . . . 50%)”. Moreover, on MC4, the “MC4 inhibition at 10 micromolar” value is on record as “+ (Indicates inhibition greater than . . . 50%)”. `COC[C@H]1OC(OCc2ccc(-c3ccccc3)cc2)[C@H](NC(=O)CCCNC(=N)N)[C@@H](OCc2ccc(Cl)cc2)[C@@H]1O` (some centres unmarked) [Compound 34]: the “SST5 inhibition at 10 micromolar” value on SST5 (10 micromolar compound) was “+ (Indicates inhibition greater than . . . 50%)”. The “MC4 inhibition at 10 micromolar” value at MC4 is recorded as “+ (Indicates inhibition greater than . . . 50%)”. Regarding `COC[C@H]1OC(OCc2ccc3ccccc3c2)[C@H](NC(=O)CNC(=N)N)[C@@H](OCc2ccc(-c3ccccc3)cc2)[C@@H]1O` (some centres unmarked) [Compound 35], the “SST5 inhibition at 10 micromolar” value at SST5 (10 micromolar compound) is recorded as “+ (Indicates inhibition greater than . . . 50%)”. For the same compound, the “MC4 inhibition at 10 micromolar” value on MC4 was “+ (Indicates inhibition greater than . . . 50%)”. Consider `COC[C@H]1OC(OCc2ccc3ccccc3c2)[C@H](NC(=O)CCNC(=N)N)[C@@H](OCc2ccc(-c3ccccc3)cc2)[C@@H]1O` (some centres unmarked) [Compound 36], for which, at SST5 (10 micromolar compound), the “SST5 inhibition at 10 micromolar” value is listed as “+ (Indicates inhibition greater than . . . 50%)”. Further, the “MC4 inhibition at 10 micromolar” value on MC4 is given as “+ (Indicates inhibition greater than . . . 50%)”. For `COC[C@H]1OC(OCc2ccc3ccccc3c2)[C@H](NC(=O)CCCN)[C@@H](OCc2ccc(-c3ccccc3)cc2)[C@@H]1O` (some centres unmarked) [Compound 37], the “SST5 inhibition at 10 micromolar” value at SST5 (10 micromolar compound) was “+ (Indicates inhibition greater than . . . 50%)”. Further, the “MC4 inhibition at 10 micromolar” value on MC4 is listed as “+ (Indicates inhibition greater than . . . 50%)”. As for `COC[C@H]1OC(OCc2ccc3ccccc3c2)[C@H](NC(=O)CCNC(=N)N)[C@@H](OCc2ccc3ccccc3c2)[C@@H]1O` (some centres unmarked) [Compound 38], at SST5 (10 micromolar compound), the “SST5 inhibition at 10 micromolar” value is “+ (Indicates inhibition greater than . . . 50%)”. Besides, on MC4, the “MC4 inhibition at 10 micromolar” value is “+ (Indicates inhibition greater than . . . 50%)”. On to `COCC1OC(OCc2ccc3ccccc3c2)C(NC(=O)CCCN)C(OCc2ccccc2)C1O` (centres unmarked) [Compound 288], for which, on SST5 (setting [1]), the “SSTS inhibition at 10 micromolar” value is on record as “+ (Indicates inhibition greater than . . . 50%)”. Same read-out and setting: to `COCC1OC(OCc2ccc3ccccc3c2)C(NC(=O)CCCNC(=N)N)C(OCc2ccccc2)C1O` (centres unmarked) [Compound 289] belongs “+ (Indicates inhibition greater than . . . 50%)”; to `COCC1OC(OCc2ccc3ccccc3c2)C(NC(=O)CN)C(OCc2ccc(Cl)cc2)C1O` (centres unmarked) [Compound 290], “+ (Indicates inhibition greater than . . . 50%)”; to `COCC1OC(OCc2ccc3ccccc3c2)C(NC(=O)CCN)C(OCc2ccc(Cl)cc2)C1O` (centres unmarked) [Compound 292], “+ (Indicates inhibition greater than . . . 50%)”. For `COCC1OC(OCc2ccc3ccccc3c2)C(NC(=O)CN)C(OCc2ccc(-c3ccccc3)cc2)C1O` (centres unmarked) [Compound 296], the “SSTS inhibition at 10 micromolar” value on SST5 (setting [1]) is “+ (Indicates inhibition greater than . . . 50%)”. As for `COCC1OC(OCc2ccc3ccccc3c2)C(NC(=O)CCN)C(OCc2ccc3ccccc3c2)C1O` (centres unmarked) [Compound 304], the “SSTS inhibition at 10 micromolar” value at SST5 (setting [1]) is given as “+ (Indicates inhibition greater than . . . 50%)”. As to `COCC1OC(OCc2ccc3ccccc3c2)C(NC(=O)CCCN)C(OCc2ccc3ccccc3c2)C1O` (centres unmarked) [Compound 306], the “SSTS inhibition at 10 micromolar” value at SST5 (setting [1]) is listed as “+ (Indicates inhibition greater than . . . 50%)”. For the compound `CSC1OC(COC(=O)Cc2c[nH]c3ccccc23)C(O)C(OCc2cccc(N)c2)C1NCc1ccccc1` (centres unmarked) [Compound 310], at SST5 (10 micromolar compound), the “SST5 inhibition at 10 micromolar” value is reported as “+ (Indicates inhibition greater than . . . 50%)”. Still for that read-out and setting: to `CSC1OC(COC(=O)c2ccccc2)C(O)C(OCc2cccc(N)c2)C1NCc1ccc(Cl)cc1` (centres unmarked) [Compound 312] belongs “+ (Indicates inhibition greater than . . . 50%)”; to `CSC1OC(COC(=O)Cc2c[nH]c3ccccc23)C(O)C(OCc2cccc(N)c2)C1NCc1ccc(Cl)cc1` (centres unmarked) [Compound 315], “+ (Indicates inhibition greater than . . . 50%)”; to `CSC1O[C@H](COCc2ccccc2)[C@@H](O)[C@H](OCc2cccc(N)c2)[C@H]1NC(=O)c1ccccc1` (some centres unmarked) [Compound 316], “+ (Indicates inhibition greater than . . . 50%)”. On the same count and under the same terms, next, `CSC1O[C@H](COCc2ccccc2)[C@@H](O)[C@H](OCc2cccc(N)c2)[C@H]1NC(=O)Cc1c[nH]c2ccccc12` (some centres unmarked) [Compound 319]: “+ (Indicates inhibition greater than . . . 50%)”.

As to `CSC1O[C@H](COCc2ccc(Cl)cc2)[C@@H](O)[C@H](OCc2cccc(N)c2)[C@H]1NC(=O)c1ccccc1` (some centres unmarked) [Compound 321], the “SST5 inhibition at 10 micromolar” value at SST5 (10 micromolar compound) was “+ (Indicates inhibition greater than . . . 50%)”.

As to `CSC1O[C@H](COCc2ccc(Cl)cc2)[C@@H](O)[C@H](OCc2cccc(N)c2)[C@H]1NC(=O)Cc1ccccc1` (some centres unmarked) [Compound 322], the “SST5 inhibition at 10 micromolar” value at SST5 (10 micromolar compound) was “+ (Indicates inhibition greater than . . . 50%)”. Still for that read-out and setting: to `CSC1OC(COCc2cccc(N)c2)C(O)C(OCc2ccccc2)C1NC(=O)c1ccccc1` (centres unmarked) [Compound 326] belongs “+ (Indicates inhibition greater than . . . 50%)”. The same measure, in the same setting: next, `CSC1OC(COCc2cccc(N)c2)C(O)C(OCc2ccccc2)C1NC(=O)Cc1c[nH]c2ccccc12` (centres unmarked) [Compound 329]: “+ (Indicates inhibition greater than . . . 50%)”. Consider `CSC1O[C@H](COCc2cccc(N)c2)[C@@H](O)[C@H](OCc2ccccc2)[C@H]1NC(=O)CCC1CNc2ccccc21` (some centres unmarked) [Compound 337], for which the “SSTS inhibition at 10 micromolar” value at SST5 (10 micromolar compound, Example Library 8) was “+ (Indicates inhibition greater than . . . 50%)”.
